Earlier results in patent US20220378705A1, “METHOD FOR PREPARING PHARMACEUTICAL COMPOSITIONS CONTAINING AMPHIPHILIC ACTIVE INGREDIENTS” (PHARMADEV SA, priority 2019, published 2022).

Legend:
[1] = octanol-water partition coefficient

Row | Log Po/w [1] | pKa | SMILES
1 | 2.3 | 3.84 | O=C(c1ccccc1)c1ccc2n1CCC2C(=O)O (racemic) [KETOROLAC, 2-amino-2-(hydroxymethyl)propane-1,3-2-amino-2-(hydroxymethyl)-1,3-propanediol(±)-5-benzoyl-2,3-dihydro-1H-pyrrolizine-1-carboxylic acid diol(±)-5-benzoyl-2,3-dihydro-1H-pyrrolizine-1-carboxylic acid]
2 | 4.16 | 4.17 | CC(C(=O)O)c1ccc(-c2ccccc2)c(F)c1 (stereo not shown) [FLURBIPROFEN, 2-(3-fluoro-4-phenylphenyl)propanoic acid]
3 | 4.20 | – | Cc1cccc(Nc2ccccc2C(=O)O)c1C [MEFENAMIC ACID, 2-(2,3-dimethylanilino)benzoic acid]
4 | 4.43 | 4.44 | O=C(O)c1cccnc1Nc1cccc(C(F)(F)F)c1 [NIFLUMIC ACID]
